Test results as given in patent publication US20250129048A1, “MELANOCORTIN 4 RECEPTOR ANTAGONISTS AND USES THEREOF” (Pfizer Inc., priority 2021, published 2025).

What was measured:
[1] = molecular target: human Melanocortin-4 receptor (MC4R) (Homo sapiens (Human), UniProt P32245); assay: Functional in vitro MC4R antagonist potency assay (intracellular cAMP, HTRF, CHO cells); type: cell-based; conditions: cAMP after EC80 agonist stimulation (200 nM αMSH); Kb from IC50 by Leff-Dougall equation; read-out: Kb (nM) Antagonist geometric mean
Procedure: The functional in vitro antagonist potency for test compounds was determined by monitoring intracellular cyclic adenosine monophosphate (cAMP) levels in Chinese hamster ovary (CHO—) cells stably expressing the human Melanocortin-4 receptor (MC4R). Following agonist activation, human MC4R associates with the G-protein complex causing the Ga subunit to exchange bound GDP for GTP, followed by dissociation of the Gα-GTP complex. The activated Ga subunit can couple to downstream effectors to regulate the levels of second messengers or cAMP within the cell. Thereby, determination of intracellular cAMP levels allows for pharmacological characterization. Intracellular cAMP levels are quantitated using a homogenous assay utilizing the Homogeneous Time-Resolved Fluorescence (HTRF) technology from CisBio. The method is a competitive immunoassay between native cAMP produced by cells and the cAMP labelled with the acceptor dye, d2. The two entities then compete for binding to a monoclonal anti-cAMP antibody labeled with cryptate. The specific signal is inversely proportional to the concentration of cAMP in the cells.
Test compounds were solubilized to 30 mM in 100% dimethyl sulfoxide (DMSO) and stored. An 11-point dilution series using 1 in 3 162-fold serial dilutions was created in 100% DMSO with a top concentration of 800 μM. The serially diluted compound was spotted into a 384-well plate (Greiner, Cat No. 781280) at 40 nL/well with duplicate points at each concentration, and then diluted 1 in 1000 with 40 μL assay buffer containing HBSS, 20 mM HEPES (Invitrogen), 0.1% BSA, and 250 μM IBMX (Sigma Aldrich) to create an intermediate plate at 2× final assay concentration (FAC). The final compound concentration range in the assay was 400 nM to […], with a final DMSO concentration of 0.1%.
In-house generated CHO cells stably expressing the Gs-coupled human MC4R receptor were plated in 384-well assay plates (Corning, Cat No. 3570) in 50 μL/well of Ham's F-12 containing 10% heat inactivated FBS, 1× penicillin/streptomycin, 1 mM Glutamax (Invitrogen) at a density of 2,500 cells per well and incubated at 37° C. (95% O2: 5% CO2) overnight, with micro-clime lids (Labcyte, Cat No. LLS-0310). On day of assay, media was removed from the assay plate through gentle flicking and blotting plate on a paper towel and replaced with 5 μL of 2× antagonist compound in assay buffer (HBSS, 20 mM HEPES, 0.1% BSA, 250 μM IBMX) and 0.1% DMSO. Cells were incubated with compound for 30 minutes at 37° C. (95% O2: 5% CO2) before addition of 5 μL EC80 agonist stimulation (200 nM α-melanocyte stimulating hormone, αMSH, Bachem) and another 30-minute incubation at 37° C. (95% O2: 5% CO2). Intracellular cAMP levels were quantified as per Cisbio's protocol (5 μL of D2 and then 5 μL Cryptate, incubated for 1-2 hours at room temperature). Samples were measured on an Envision plate reader (PerkinElmer Life and Analytical Sciences; excitation, 320 nm; emission, 665 nm/620 nm).
Data were analyzed using the ratio of fluorescence intensity at 620 and 665 nm for each well, extrapolated from the cAMP standard curve to express data as nM cAMP for each well. Data expressed as nM cAMP were then normalized to control wells using Activity Base (IDBS). Zero percent effect (ZPE) was defined as nM of cAMP generated from EC80 agonist stimulation (200 nM αMSH). In the absence of an antagonist control compound, one hundred percent effect (HPE) was defined as nM of cAMP generated from assay buffer/vehicle only.

[2] = molecular target: hMC4R (Homo sapiens (Human), UniProt P32245); assay: In vitro binding affinity assay using hMC4R (radioligand competition binding, CHO cell membranes); conditions: competition with [125I]-(Nle4, D-Phe7)-α-MSH 0.5 nM; Ki from IC50 by Cheng-Prusoff; read-out: Ki (nM) geometric mean
Procedure: The binding affinity of test compounds at the α-melanocyte-stimulating hormone receptor (hMC4R) was assessed using a radioligand competition binding assay. Recombinant Chinese hamster ovaries (CHO) cells stably expressing hMC4R (PerkinElmer #ES-191-C) were used for competitive binding. hMC4R membranes were grown in Dulbecco's Modified Essential Medium and Ham's F-12 Medium (DMEM/F12), 10% heat inactivated fetal bovine serum (FBS), 0.4 mg/mL Geneticin and 2 mM L-glutamine. Cell membranes were bulked and frozen until the assay was performed.
Compounds were solubilized in 100% dimethyl sulfoxide (DMSO) to a concentration of 30 mM. A 10-point intermediate dilution series using half log dilutions was created in 100% DMSO with a top concentration of 0.03 mM. The serially diluted compounds were spotted as 1 μL/well, in 96-well Costar 3363 plates. The final compound range in the assay was 300 nM to 0.01 nM with a final DMSO concentration of 1%. Control wells, containing 1 μL of 2 mM ([…]) alpha-melanocyte stimulating hormone (α-MSH-Tocris #2584) was added to the non-specific binding wells and 1 μL 100% DMSO for the total binding control wells. This was followed by the addition of 80 μL of assay buffer [25 mM HEPES, 5 mM MgCl2, 2.5 mM CaCl2, 150 mM NaCl, Complete EDTA-free Protease Inhibitor Tablet (Thermo Scientific #11873580001) and 0.25% BSA]. […] The exact concentration of radioligand used for each experiment was determined by liquid scintillation counting and adjusted if necessary.
Frozen hMC4R cell membranes were thawed and Dounce homogenized. Homogenates were resuspended in assay buffer to a concentration of 2 μg per well. […] The plates were incubated for 2 hours at room temperature. Assay samples were then rapidly filtered through Unifilter-96 GF/B PEI coated filter plates using a filter plate harvester (PerkinElmer) and rinsed with ice-cold wash buffer [25 mM (4-(2-hydroxyethyl)-1-piperazineethanesulfonic acid (HEPES), 1 mM MgCl2, 2.5 mM CaCl2, and 500 mM NaCl]. Filter plates were dried overnight at room temperature. Plates were then bottom-sealed prior to the addition of 50 μL/well Ultima Gold XR scintillation fluid (PerkinElmer 6013111). Plates were then top-sealed, incubated for 60 minutes at room temperature and then the amount of radioactivity present was determined by liquid scintillation counting on a Microbeta Trilux (PerkinElmer #2450-0060).
The raw data (expressed as counts per minute) were analyzed using ActivityBase (IDBS Data Management Software). […] Equilibrium dissociation constant for inhibitor of ligand and receptor interaction (Ki) values were then calculated from the IC50 values using the Cheng-Prusoff equation: Ki=IC50/(1+([L]/Kd)), where [L] is the concentration of the radioligand used in the experiment and Kd is the affinity of the radioligand (determined in separate saturation experiments).

Sequence of hMC4R (P32245 whole entry): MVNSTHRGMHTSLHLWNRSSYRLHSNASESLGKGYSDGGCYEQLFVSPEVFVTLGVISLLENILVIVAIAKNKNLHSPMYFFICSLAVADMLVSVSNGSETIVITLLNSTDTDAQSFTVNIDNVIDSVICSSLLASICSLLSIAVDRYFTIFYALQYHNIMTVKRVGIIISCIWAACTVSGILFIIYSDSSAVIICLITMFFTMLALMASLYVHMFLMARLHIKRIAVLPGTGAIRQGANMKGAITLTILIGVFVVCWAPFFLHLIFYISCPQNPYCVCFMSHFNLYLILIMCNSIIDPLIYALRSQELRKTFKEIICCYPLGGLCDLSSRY
Sequence of human Melanocortin-4 receptor (MC4R) (P32245 whole entry): as above

Row | SMILES | Kb [1] | Ki [2]
1 | COc1cc([C@@H](C)C(=O)N2CC[C@H](Nc3ccc(-c4cn(C)c(C(F)F)n4)c(C)n3)C2)cc(OC)n1 (single isomer, unassigned) [Example 12A] | 1.9 nM | 0.31 nM
2 | Cc1nc(N[C@H]2CCN(C(=O)[C@H](F)c3ccccc3)C2)ccc1-c1cn(C)cn1 (single isomer, unassigned) [Example 13B] | 2.9 nM | 0.34 nM
3 | COc1cccc([C@@H](C)C(=O)N2CC[C@H](Nc3ccc(-c4cn(C)c(C(C)(F)F)n4)c(C)n3)C2)c1 (single isomer, unassigned) [Example 14B] | 14 nM | 0.45 nM
4 | COc1cc([C@@H](C)C(=O)N2CC[C@H](Nc3ccc(-c4cn(C)c(C(C)(F)F)n4)c(C)n3)C2)c(C)cn1 (single isomer, unassigned) [Example 16B] | 2.1 nM | 0.23 nM
5 | COc1ccc(C)c([C@@H](C)C(=O)N2CC[C@H](Nc3ccc(-c4cn(C)cn4)c(C)n3)C2)c1 (single isomer, unassigned) [Example 20B] | 2.9 nM | 0.23 nM
6 | COc1cc([C@@H](C)C(=O)N2CC[C@H](Nc3ccc(-c4cn(C)c(C(C)(F)F)n4)c(C)n3)C2)c(F)cn1 (single isomer, unassigned) [Example 21B] | 2.6 nM | 0.48 nM
7 | COc1cc([C@@H](C)C(=O)N2CC[C@H](Nc3ccc(-c4ncccn4)c(C)n3)C2)c(C)cn1 (single isomer, unassigned) [Example 22A] | > 110 nM | 120 nM
8 | COc1cc([C@@H](C)C(=O)N2CC[C@H](Nc3ccc(-c4ncccn4)c(C)n3)C2)c(C)cn1 (single isomer, unassigned) [Example 22B] | 8.1 nM | 2.1 nM
9 | COc1cc([C@@H](C)C(=O)N2CC[C@H](Nc3ccc(-c4nc(C(F)F)n(C)n4)c(C)n3)C2)c(Cl)cn1 (single isomer, unassigned) [Example 24B] | 0.96 nM | 0.49 nM
10 | COc1cc([C@@H](C)C(=O)N2CC[C@H](Nc3ccc(-c4nc(C(F)(F)F)n(C)n4)c(C)n3)C2)c(Cl)cn1 (single isomer, unassigned) [Example 25B] | 1.8 nM | 0.49 nM
11 | COc1cc([C@@H](C)C(=O)N2CC[C@H](Nc3ccc(-c4nnn(C)n4)c(C)n3)C2)c(C)cn1 (single isomer, unassigned) [Example 26A] | > 150 nM | > 170 nM
12 | COc1cc([C@@H](C)C(=O)N2CC[C@H](Nc3ccc(-c4nnn(C)n4)c(C)n3)C2)c(C)cn1 (single isomer, unassigned) [Example 26B] | 5.6 nM | 2.1 nM
13 | COc1cc([C@@H](C)C(=O)N2CC[C@H](Nc3ccc(-c4ncccn4)c(C)n3)C2)cc(OC(F)F)n1 (single isomer, unassigned) [Example 30A] | > 62 nM | > 200 nM
14 | COc1cc([C@@H](C)C(=O)N2CC[C@H](Nc3ccc(-c4ncccn4)c(C)n3)C2)cc(OC(F)F)n1 (single isomer, unassigned) [Example 30B] | 6.8 nM | 0.93 nM
15 | COc1cc([C@@H](C)C(=O)N2CC[C@H](Nc3ccc(-c4nc(C(F)F)n(C)n4)c(C)n3)C2)ccn1 (single isomer, unassigned) [Example 33B] | 3.3 nM | 1.1 nM
16 | COc1cc([C@@H](C)C(=O)N2CC[C@H](Nc3ccc(-c4nc(C(C)(F)F)n(C)n4)c(C)n3)C2)c(Cl)cn1 (single isomer, unassigned) [Example 37B] | 4.1 nM | 0.53 nM
17 | COc1cc([C@@H](C)C(=O)N2CC[C@H](Nc3ccc(-c4cn(C)c(C(F)F)n4)c(C)n3)C2)c(F)cn1 (single isomer, unassigned) [Example 38B] | 3.2 nM | 0.31 nM
18 | COc1cc(OC(F)F)cc([C@@H](C)C(=O)N2CC[C@H](Nc3ccc(-c4nc(C(C)(F)F)n(C)n4)c(C)n3)C2)c1 (single isomer, unassigned) [Example 40B] | 7.2 nM | 0.29 nM
19 | COc1cc([C@@H](C)C(=O)N2CC[C@H](Nc3ccc(-c4nc(C(F)F)n(C)n4)c(C)n3)C2)nc(C)n1 (single isomer, unassigned) [Example 41B] | 3.6 nM | 2 nM
20 | COc1cc(OC(F)F)cc([C@@H](C)C(=O)N2CC[C@H](Nc3ccc(-c4ncccn4)c(C)n3)C2)c1 (single isomer, unassigned) [Example 44A] | > 97 nM | > 220 nM
21 | COc1cc(OC(F)F)cc([C@@H](C)C(=O)N2CC[C@H](Nc3ccc(-c4ncccn4)c(C)n3)C2)c1 (single isomer, unassigned) [Example 44B] | 4.1 nM | 0.77 nM
22 | COc1cc([C@@H](C)C(=O)N2CC[C@H](Nc3ccc(-c4nnn(C)n4)c(C)n3)C2)c(Cl)cn1 [Example 1, (2R)-2-(5-chloro-2-methoxypyridin-4-yl)-1-[(3S)-3-{[6-methyl-5-(2-methyl-2H-tetrazol-5-yl)pyridin-2-yl]amino}pyrrolidin-1-yl]propan-1-one] | 5.1 nM | 0.88 nM
23 | COc1cc([C@@H](C)C(=O)N2CC[C@H](Nc3ccc(-c4nc(C(F)(F)F)n(C)n4)c(C)n3)C2)c(F)cn1 [Example 2, (2R)-2-(5-fluoro-2-methoxypyridin-4-yl)-1-[(3S)-3-({6-methyl-5-[1-methyl-5-(trifluoromethyl)-1H-1,2,4-triazol-3-yl]pyridin-2-yl}amino)pyrrolidin-1-yl]propan-1-one] | 7.2 nM | 1.2 nM
